From ChEMBL document CHEMBL3045869, “Efficacy of fungicides with various modes of action in controlling the early stages of an Erysiphe necator-induced epidemic” (2010) come the findings set out here.

The source made the active and inactive calls. The rule behind the calls is not given here.

The test system of test [1] is Erysiphe necator. The test can be described thus: Antifungal activity against Erysiphe necator biotype B assessed as disease severity at 0.625 g a.i./l applied 4 days post-inoculation measured immediately during cycle 1 by leaf-disk method relative to untreated-control. Format: functional.
Test [2] concerns Erysiphe necator. Put plainly: Antifungal activity against Erysiphe necator biotype B assessed as AUDPC at 0.625 g a.i./l applied 4 days post-inoculation measured after 14 days during cycle 1 by leaf-disk method (reference value: 695.6). The format is functional.
The subject of test [3] is Erysiphe necator. The test can be described thus: Antifungal activity against Erysiphe necator biotype B assessed as number of spores at 0.625 g a.i./l applied 4 days post-inoculation measured after 14 days during cycle 1 by leaf-disk method (reference value: 35.9 x 10^3 cm'-2). Format: functional.
Test [4] concerns Erysiphe necator. The test can be described thus: Antifungal activity against Erysiphe necator biotype B assessed as number of spores at 0.625 g a.i./l applied 48 hr post-inoculation measured after 14 days by leaf-disk method (reference value: 43.5 x 10^3 cm'-2). Format: functional.
Test [5] deals with Erysiphe necator. The test can be described thus: Antifungal activity against Erysiphe necator biotype B assessed as disease severity at 0.625 g a.i./l applied 4 days post-inoculation measured after 14 days during cycle 1 by leaf-disk method relative to untreated-control. Format: functional.
Test [6] deals with Erysiphe necator. The test can be described thus: Antifungal activity against Erysiphe necator biotype B assessed as disease severity at 0.625 g a.i./l applied 48 hr post-inoculation measured after 14 days by leaf-disk method relative to untreated-control. Format: functional.
The subject of test [7] is Erysiphe necator. The test can be described thus: Antifungal activity against Erysiphe necator biotype B assessed as AUDPC at 0.625 g a.i./l applied 13 days post-inoculation measured after 14 days during cycle 2 by leaf-disk method (reference value: 654). Format: functional.
The subject of test [8] is Erysiphe necator. Put plainly: Antifungal activity against Erysiphe necator biotype B assessed as number of spores at 0.625 g a.i./l applied 4 days post-inoculation measured after 14 days during cycle 2 by leaf-disk method (reference value: 44.4 x 10^3 cm'-2). Format: functional.
Test [9] relates to Erysiphe necator. Put plainly: Antifungal activity against Erysiphe necator biotype B assessed as number of spores at 0.625 g a.i./l applied 13 days post-inoculation measured after 14 days during cycle 2 by leaf-disk method (reference value: 47.6 x 10^3 cm'-2). Format: functional.
For test [10], the system named is Erysiphe necator. Put plainly: Antifungal activity against Erysiphe necator biotype B assessed as AUDPC at 0.625 g a.i./l applied 4 days post-inoculation measured after 14 days during cycle 2 by leaf-disk method (reference value: 844). The format is functional.
The subject of test [11] is Erysiphe necator. Put plainly: Antifungal activity against Erysiphe necator biotype B assessed as AUDPC at 0.625 g a.i./l applied 48 hr post-inoculation measured after 14 days by leaf-disk method (reference value: 394). The format is functional.
In test [12] the test system is Erysiphe necator. Put plainly: Antifungal activity against Erysiphe necator biotype B assessed as disease severity at 0.625 g a.i./l applied 48 hr post-inoculation measured after 7 days by leaf-disk method relative to untreated-control. The format is functional.
The test system of test [13] is Erysiphe necator. The test can be described thus: Antifungal activity against Erysiphe necator biotype B assessed as disease severity at 0.5 g a.i./l applied 13 days post-inoculation measured after 14 days during cycle 2 by leaf-disk method relative to untreated-control. The format is functional.
Test [14] concerns Erysiphe necator. The test can be described thus: Antifungal activity against Erysiphe necator biotype B assessed as reduction in sporulation at 0.5 g a.i./l applied 4 days post-inoculation measured after 11 days during cycle 2 by leaf-disk method relative to untreated-control. Format: functional, organism-based.
Test [15] has as its system Erysiphe necator. Put plainly: Antifungal activity against Erysiphe necator biotype B assessed as reduction in disease severity at 0.5 g a.i./l applied 48 hr post-inoculation measured after 14 days by leaf-disk method relative to untreated-control. The format is functional, organism-based.
For test [16], the system named is Erysiphe necator. The test can be described thus: Antifungal activity against Erysiphe necator biotype B assessed as disease severity at 0.5 g a.i./l applied 13 days post-inoculation measured after 6 days during cycle 2 by leaf-disk method relative to untreated-control. Format: functional.
The subject of test [17] is Erysiphe necator. Put plainly: Antifungal activity against Erysiphe necator biotype B assessed as disease severity at 0.5 g a.i./l applied 4 days post-inoculation measured after 14 days during cycle 1 by leaf-disk method relative to untreated-control. The format is functional.
The test system of test [18] is Erysiphe necator. The test can be described thus: Antifungal activity against Erysiphe necator biotype B assessed as AUDPC at 0.5 g a.i./l applied 13 days post-inoculation measured after 14 days during cycle 2 by leaf-disk method (reference value: 654). Format: functional.
Test [19] relates to Erysiphe necator. Put plainly: Antifungal activity against Erysiphe necator biotype B assessed as reduction in disease severity at 0.5 g a.i./l applied 4 days post-inoculation measured after 11 days during cycle 2 by leaf-disk method relative to untreated-control. Format: functional, organism-based.
Test [20] relates to Erysiphe necator. The test can be described thus: Antifungal activity against Erysiphe necator biotype B assessed as number of spores at 0.5 g a.i./l applied 4 days post-inoculation measured after 14 days during cycle 2 by leaf-disk method (reference value: 44.4 x 10^3 cm'-2). The format is functional.
For test [21], the system named is Erysiphe necator. The test can be described thus: Antifungal activity against Erysiphe necator biotype B assessed as AUDPC at 0.5 g a.i./l applied 48 hr post-inoculation measured after 14 days by leaf-disk method (reference value: 394). The format is functional.
The subject of test [22] is Erysiphe necator. The test can be described thus: Antifungal activity against Erysiphe necator biotype B assessed as disease severity at 0.5 g a.i./l applied 4 days post-inoculation measured immediately during cycle 1 by leaf-disk method relative to untreated-control. The format is functional.
Test [23] has as its system Erysiphe necator. Put plainly: Antifungal activity against Erysiphe necator biotype B assessed as reduction in AUDPC at 0.5 g a.i./l applied 4 days post-inoculation measured after 11 days during cycle 2 by leaf-disk method relative to untreated-control. Format: functional, organism-based.
The test system of test [24] is Erysiphe necator. The test can be described thus: Antifungal activity against Erysiphe necator biotype B assessed as AUDPC at 0.5 g a.i./l applied 4 days post-inoculation measured after 14 days during cycle 1 by leaf-disk method (reference value: 695.6). Format: functional.
Test [25] deals with Erysiphe necator. Put plainly: Antifungal activity against Erysiphe necator biotype B assessed as AUDPC at 0.5 g a.i./l applied 4 days post-inoculation measured after 14 days during cycle 2 by leaf-disk method (reference value: 844). The format is functional.
The test system of test [26] is Erysiphe necator. The test can be described thus: Antifungal activity against Erysiphe necator biotype B assessed as number of spores at 0.5 g a.i./l applied 13 days post-inoculation measured after 14 days during cycle 2 by leaf-disk method (reference value: 47.6 x 10^3 cm'-2). Format: functional.
Test [27] concerns Erysiphe necator. The test can be described thus: Antifungal activity against Erysiphe necator biotype B assessed as number of spores at 0.5 g a.i./l applied 4 days post-inoculation measured after 14 days during cycle 1 by leaf-disk method (reference value: 35.9 x 10^3 cm'-2). The format is functional.
Test [28] concerns Erysiphe necator. The test can be described thus: Antifungal activity against Erysiphe necator biotype B assessed as number of spores at 0.5 g a.i./l applied 48 hr post-inoculation measured after 14 days by leaf-disk method (reference value: 43.5 x 10^3 cm'-2). Format: functional.
Test [29] concerns Erysiphe necator. Put plainly: Antifungal activity against Erysiphe necator biotype B assessed as reduction in mycelial growth at 0.5 g a.i./l applied 4 days post-inoculation measured after 11 days during cycle 2 by leaf-disk method relative to untreated-control. The format is functional, organism-based.
For test [30], the system named is Erysiphe necator. The test can be described thus: Antifungal activity against Erysiphe necator biotype B assessed as number of spores at 1 g a.i./l applied 4 days post-inoculation measured after 14 days during cycle 1 by leaf-disk method (reference value: 35.9 x 10^3 cm'-2). The format is functional.
In test [31] the test system is Erysiphe necator. The test can be described thus: Antifungal activity against Erysiphe necator biotype B assessed as disease severity at 1 g a.i./l applied 4 days post-inoculation measured immediately during cycle 1 by leaf-disk method relative to untreated-control. The format is functional.
The subject of test [32] is Erysiphe necator. Put plainly: Antifungal activity against Erysiphe necator biotype B assessed as inhibition of mycelial growth at 1 g a.i./l applied 48 hr post-inoculation measured after 14 days by leaf-disk method. Format: functional, organism-based.
For test [33], the system named is Erysiphe necator. Put plainly: Antifungal activity against Erysiphe necator biotype B assessed as AUDPC at 1 g a.i./l applied 4 days post-inoculation measured after 14 days during cycle 2 by leaf-disk method (reference value: 844). The format is functional.
Test [34] concerns Erysiphe necator. The test can be described thus: Antifungal activity against Erysiphe necator biotype B assessed as inhibition of disease severity at 1 g a.i./l applied 48 hr post-inoculation measured after 14 days by leaf-disk method relative to control. Also noted: scale not given: the % may be the effect or the level left. Format: functional.
In test [35] the test system is Erysiphe necator. Put plainly: Antifungal activity against Erysiphe necator biotype B assessed as AUDPC at 1 g a.i./l applied 4 days post-inoculation measured after 14 days during cycle 1 by leaf-disk method (reference value: 695.6). The format is functional.
The test system of test [36] is Erysiphe necator. Put plainly: Antifungal activity against Erysiphe necator biotype B assessed as AUDPC at 1 g a.i./l applied 13 days post-inoculation measured after 14 days during cycle 2 by leaf-disk method (reference value: 654). The format is functional.
Test [37] concerns Erysiphe necator. The test can be described thus: Antifungal activity against Erysiphe necator biotype B assessed as number of spores at 1 g a.i./l applied 13 days post-inoculation measured after 14 days during cycle 2 by leaf-disk method (reference value: 47.6 x 10^3 cm'-2). The format is functional.
The subject of test [38] is Erysiphe necator. The test can be described thus: Antifungal activity against Erysiphe necator biotype B assessed as disease severity at 1 g a.i./l applied 4 days post-inoculation measured on day 13 during cycle 1 by leaf-disk method relative to untreated-control. The format is functional.
The subject of test [39] is Erysiphe necator. The test can be described thus: Antifungal activity against Erysiphe necator biotype B assessed as number of spores at 1 g a.i./l applied 48 hr post-inoculation measured after 14 days by leaf-disk method (reference value: 43.5 x 10^3 cm'-2). Format: functional.
For test [40], the system named is Erysiphe necator. Put plainly: Antifungal activity against Erysiphe necator biotype B assessed as inhibition of mycelial growth at 1 g a.i./l applied 4 days post-inoculation measured on after 14 days during cycle 2 by leaf-disk method relative to untreated-control. The format is functional, organism-based.
The subject of test [41] is Erysiphe necator. Put plainly: Antifungal activity against Erysiphe necator biotype B assessed as AUDPC at 1 g a.i./l applied 48 hr post-inoculation measured after 14 days by leaf-disk method (reference value: 394). The format is functional.
Test [42] concerns Erysiphe necator. Put plainly: Antifungal activity against Erysiphe necator biotype B assessed as number of spores at 1 g a.i./l applied 4 days post-inoculation measured after 14 days during cycle 2 by leaf-disk method (reference value: 44.4 x 10^3 cm'-2). Format: functional.
In test [43] the test system is Erysiphe necator. Put plainly: Antifungal activity against Erysiphe necator biotype B assessed as disease severity at 1 g a.i./l applied 13 days post-inoculation measured after 6 days during cycle 2 by leaf-disk method relative to untreated-control. Format: functional.
For test [44], the system named is Erysiphe necator. Put plainly: Antifungal activity against Erysiphe necator biotype B assessed as disease severity at 1 g a.i./l applied 13 days post-inoculation measured after 14 days during cycle 2 by leaf-disk method relative to untreated-control. The format is functional.
Test [45] deals with Erysiphe necator. The test can be described thus: Antifungal activity against Erysiphe necator biotype B assessed as reduction in mycelial growth at 1 g a.i./l applied 13 days post-inoculation measured after 14 days during cycle 2 by leaf-disk method relative to untreated-control. Format: functional, organism-based.

Take `CO/N=C(\C(=O)OC)c1ccccc1CO/N=C(\C)c1cccc(C(F)(F)F)c1`: the Activity stood at 24% in test [1]; 0.2 ×10³ /cm2 in test [3]; 2.1 ×10³ /cm2 in test [4]; 60% in test [5]; 31.8% in test [6]; 0.06 ×10³ /cm2 in test [8]. Besides, the Activity was determined as 1 ×10³ /cm2 in test [9] and 3% in [12]. The AUDPC in test [2] was 459; in test [7], 6; in [10] it was 0; in test [11], 86.

In the case of `Fc1ccc(Oc2ccnc3cc(Cl)cc(Cl)c23)cc1` [QUINOXYFEN], the Activity in [13] was 89%; in test [16], 5%; in test [17], 60%; in [20], 36.9 ×10³ /cm2; in test [22], 24%; in test [26], 23.2 ×10³ /cm2. Besides, the Activity is on record as 10.7 ×10³ /cm2 in test [27] and 27.3 ×10³ /cm2 in [28]. Moreover, the outcome in [14], in [19] and in test [29] was inactive. The result in [15] and in test [23] was Active. For the same compound, the AUDPC was determined as 361 in [18], 354 in [21], 442 in test [24] and 6373 in test [25].

For the compound `CC(C)(C)C(O)(CCc1ccc(Cl)cc1)Cn1cncn1` (stereo not given) [TEBUCONAZOLE], the Activity in test [30] is 0.2 ×10³ /cm2; in test [31], 25%; in test [34], 0%; in test [37], 30.4 ×10³ /cm2; in test [38] it was 0%; in test [39], 0.8 ×10³ /cm2. Moreover, the Activity in test [42] is 0.02 ×10³ /cm2; in test [43] it was 50%; in test [44], 95%. The inhibition entry in test [32] and in test [40] was “Active” in each case. In addition, the AUDPC in [33] is on record as 0; in test [35] it was 56.6; in [36] it was 612; in test [41], 0. In test [45], the outcome was inactive.
